Assay [1] concerns the target Regulator of G-protein signaling 19 (Homo sapiens, UniProt P49795). Description: Inhibitory Assay: FCPIA Characterization of RGS Inhibitory Activity: CCG-50014 (FIG. 1) was originally identified as a potential inhibitor of RGS8 and RGS16 in a polyplex high throughput screen to identify inhibitors of the RGS-Gα interaction [4]. This activity was confirmed by analyzing the effect of CCG-50014 on several different RGS proteins with freshly reordered compound using multiplexed ….

The target of assay [2] is Regulator of G-protein signaling 16 (Homo sapiens, UniProt O15492). The description is as above.
Chain of Regulator of G-protein signaling 16 (O15492 whole entry, looked up, change not shown): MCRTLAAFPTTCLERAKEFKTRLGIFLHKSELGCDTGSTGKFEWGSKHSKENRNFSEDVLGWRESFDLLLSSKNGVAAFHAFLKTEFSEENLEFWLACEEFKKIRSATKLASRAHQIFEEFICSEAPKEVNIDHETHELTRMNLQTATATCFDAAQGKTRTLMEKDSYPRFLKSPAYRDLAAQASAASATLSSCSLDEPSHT

Each structure is given as a SMILES string.

These results are taken from ChEMBL document CHEMBL3639039, “Small molecule inhibitors of RGS proteins” (2014).

Chain of Regulator of G-protein signaling 19 (P49795 whole entry, looked up, stated change not applied): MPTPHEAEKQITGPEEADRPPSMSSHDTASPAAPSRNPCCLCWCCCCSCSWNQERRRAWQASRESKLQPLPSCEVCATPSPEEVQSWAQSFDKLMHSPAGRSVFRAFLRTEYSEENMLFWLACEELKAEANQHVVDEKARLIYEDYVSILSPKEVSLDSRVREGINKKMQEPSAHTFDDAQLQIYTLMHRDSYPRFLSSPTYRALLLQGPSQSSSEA

For the compound `Cc1ccc(-n2sc(=O)n(Cc3ccc(F)cc3)c2=O)cc1`, the results for the IC50 in assay [1] and in assay [2] were 120 nM and 3500 nM, respectively.

Usually IC50 stands for the point on the concentration scale where inhibition reaches its midpoint. Lower therefore signals inhibition by little substance.
